# Reference: publication PMC7645423, “Chemical composition and biological effects of kratom (Mitragyna speciosa): In vitro studies with implications for efficacy and drug interactions” (Scientific Reports, 2020)
# Entries after “also recorded” stand apart in the source; their conditions may differ.
# Tests used:
# [1] = molecular target: hMOR (Homo sapiens, UniProt P35372); test: cell-based; assay type: cell-based; details: for Emax: CHO-K1, read-out: cAMP accumulation Emax %
# [2] = molecular target: CYP3A (Homo sapiens, UniProt P08684); test: CYP inhibition in human liver microsomes, midazolam 1′-hydroxylation; details: for Inhibition of CYP3A activity (in words): human liver microsomes, extracts 2, 10, 20 µg/mL, alkaloids 1, 10, 100 µM
# [3] = molecular target: T1, µ-opioid receptor (Homo sapiens, UniProt P35372); test: biochemical; assay type: binding; set-up: expressed in transfected cells
# [4] = molecular target: CYP2D6 (Homo sapiens, UniProt P10635); test: CYP inhibition in human liver microsomes, dextromethorphan O-demethylation; details: for Inhibition of CYP2D6 activity (in words): human liver microsomes, extracts 2, 10, 20 µg/mL, alkaloids 1, 10, 100 µM
# [5] = molecular target: T1, µ-opioid receptor; assay type: cell-based
# [6] = molecular target: CYP2C9 (Homo sapiens, UniProt P11712); test: CYP inhibition in human liver microsomes, diclofenac 4′-hydroxylation; details: for Inhibition of CYP2C9 activity (in words): human liver microsomes, extracts 2, 10, 20 µg/mL, alkaloids 1, 10, 100 µM
# [7] = molecular target: T2, human κ-opioid receptor (Homo sapiens, UniProt P41145); test: biochemical; assay type: binding
# T2 construct: expressed in transfected cells
# [8] = molecular target: T3, human δ-opioid receptor (Homo sapiens, UniProt P41143); test: Competitive radioligand binding, δ-opioid receptor; details: for Ki: competitive binding against 3H-deltorphin, HEK293 cell membranes, minimum of three replicates, read-out: Receptor binding affinity (Ki ± SEM, nM) δ-opioid; for Affinity at δ-opioid receptor (in words): competitive radioligand binding, HEK293
# T3 construct: expressed in transfected cells
# [9] = tested on: human µ-opioid receptor (hMOR); details: cited from earlier work
# T2 sequence (P41145 whole entry): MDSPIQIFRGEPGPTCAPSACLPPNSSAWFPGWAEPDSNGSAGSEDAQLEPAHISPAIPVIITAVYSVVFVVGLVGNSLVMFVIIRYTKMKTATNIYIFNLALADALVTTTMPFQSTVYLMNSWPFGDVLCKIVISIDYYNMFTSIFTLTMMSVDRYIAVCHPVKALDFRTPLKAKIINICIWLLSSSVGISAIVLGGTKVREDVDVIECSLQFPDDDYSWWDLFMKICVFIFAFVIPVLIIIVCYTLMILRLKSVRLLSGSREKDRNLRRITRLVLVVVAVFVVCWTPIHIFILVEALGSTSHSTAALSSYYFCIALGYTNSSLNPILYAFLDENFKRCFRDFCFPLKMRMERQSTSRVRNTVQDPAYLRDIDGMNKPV
# Chain of CYP3A (P08684 2-503): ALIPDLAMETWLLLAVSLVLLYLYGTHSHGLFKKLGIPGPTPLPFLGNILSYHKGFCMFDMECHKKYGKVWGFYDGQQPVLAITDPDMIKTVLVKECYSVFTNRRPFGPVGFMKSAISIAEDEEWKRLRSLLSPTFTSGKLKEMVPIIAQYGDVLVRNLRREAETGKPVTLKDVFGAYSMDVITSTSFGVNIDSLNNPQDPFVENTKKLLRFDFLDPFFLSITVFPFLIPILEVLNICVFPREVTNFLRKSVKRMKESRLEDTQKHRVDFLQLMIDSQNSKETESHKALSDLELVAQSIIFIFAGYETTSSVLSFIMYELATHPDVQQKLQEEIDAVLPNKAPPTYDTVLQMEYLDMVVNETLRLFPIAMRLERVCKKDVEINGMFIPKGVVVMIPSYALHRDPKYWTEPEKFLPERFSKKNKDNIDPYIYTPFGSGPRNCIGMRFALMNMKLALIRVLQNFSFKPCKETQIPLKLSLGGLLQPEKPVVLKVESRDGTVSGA
# T1 sequence (P35372 whole entry): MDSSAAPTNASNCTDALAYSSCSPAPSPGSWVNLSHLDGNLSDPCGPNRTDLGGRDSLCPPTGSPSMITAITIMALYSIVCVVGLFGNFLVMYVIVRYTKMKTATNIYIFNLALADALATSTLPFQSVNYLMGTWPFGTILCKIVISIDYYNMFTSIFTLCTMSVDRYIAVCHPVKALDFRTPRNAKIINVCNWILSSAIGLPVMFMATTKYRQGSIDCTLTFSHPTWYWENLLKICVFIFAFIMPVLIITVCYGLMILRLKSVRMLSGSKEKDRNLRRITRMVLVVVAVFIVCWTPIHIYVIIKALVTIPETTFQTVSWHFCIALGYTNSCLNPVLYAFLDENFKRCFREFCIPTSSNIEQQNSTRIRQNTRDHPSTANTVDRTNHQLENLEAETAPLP
# Chain of hMOR (P35372 whole entry): as above
# Chain of CYP2D6 (P10635 whole entry): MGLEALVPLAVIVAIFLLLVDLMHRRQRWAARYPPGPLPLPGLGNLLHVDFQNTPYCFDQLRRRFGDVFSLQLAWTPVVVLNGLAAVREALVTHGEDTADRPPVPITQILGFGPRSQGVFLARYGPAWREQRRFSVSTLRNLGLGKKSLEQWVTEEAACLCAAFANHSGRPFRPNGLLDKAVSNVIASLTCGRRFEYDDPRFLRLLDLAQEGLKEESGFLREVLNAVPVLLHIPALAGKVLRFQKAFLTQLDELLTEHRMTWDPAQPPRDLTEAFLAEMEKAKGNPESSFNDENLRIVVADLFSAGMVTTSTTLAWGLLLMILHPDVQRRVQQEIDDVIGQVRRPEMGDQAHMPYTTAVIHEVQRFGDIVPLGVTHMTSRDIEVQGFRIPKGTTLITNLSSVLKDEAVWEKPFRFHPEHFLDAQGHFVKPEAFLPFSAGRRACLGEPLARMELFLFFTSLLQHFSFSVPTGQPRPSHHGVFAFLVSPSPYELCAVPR
# T3 sequence (P41143 whole entry): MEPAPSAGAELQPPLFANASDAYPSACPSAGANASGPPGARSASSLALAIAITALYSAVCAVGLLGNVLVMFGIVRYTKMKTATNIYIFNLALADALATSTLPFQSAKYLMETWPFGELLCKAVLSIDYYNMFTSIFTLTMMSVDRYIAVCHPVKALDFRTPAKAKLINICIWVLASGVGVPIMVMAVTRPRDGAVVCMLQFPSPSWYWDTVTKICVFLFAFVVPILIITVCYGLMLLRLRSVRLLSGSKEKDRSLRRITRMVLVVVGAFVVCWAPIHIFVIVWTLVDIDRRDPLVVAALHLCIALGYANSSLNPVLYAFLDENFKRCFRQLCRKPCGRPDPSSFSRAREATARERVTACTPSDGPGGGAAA
# Chain of CYP2C9 (P11712 whole entry): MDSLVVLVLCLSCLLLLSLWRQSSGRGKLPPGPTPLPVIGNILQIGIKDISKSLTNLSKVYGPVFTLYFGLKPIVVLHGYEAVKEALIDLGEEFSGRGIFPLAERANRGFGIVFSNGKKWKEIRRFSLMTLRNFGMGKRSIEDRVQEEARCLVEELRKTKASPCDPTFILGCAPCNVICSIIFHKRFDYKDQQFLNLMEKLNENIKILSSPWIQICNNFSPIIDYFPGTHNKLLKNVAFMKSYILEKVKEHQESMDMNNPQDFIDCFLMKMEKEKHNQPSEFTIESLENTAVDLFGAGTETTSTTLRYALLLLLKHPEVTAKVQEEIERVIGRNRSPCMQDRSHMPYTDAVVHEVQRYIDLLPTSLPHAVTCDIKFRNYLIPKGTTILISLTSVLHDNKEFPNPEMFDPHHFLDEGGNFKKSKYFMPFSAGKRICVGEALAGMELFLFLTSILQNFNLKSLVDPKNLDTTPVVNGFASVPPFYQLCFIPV
Compound,Inhibition of forskolin-stimulated cAMP accumulation (in words) [1],Inhibition of CYP3A activity (in words) [2],"IC50 at 2 min ([2]; human, microsomes, pH 7.4) [µM]",Affinity at µ-opioid receptor (in words) [3],IC50 [4] [µM],Inhibition of CYP2D6 activity (in words) [4],β-arrestin-2 recruitment (in words) [5],IC50 [6] [µM],Inhibition of CYP2C9 activity (in words) [6],Affinity at ƙ-opioid receptor (in words) [7],Ki [7] [µM],Ki [8] [nM],Affinity at the μ-opioid receptor compared to mitragynine [9],Affinity at δ-opioid receptor (in words) [8],Emax [1] [%],EC50 [1] [µM],Ki [3] [µM]
"CC[C@@H]1CN2CCc3c([nH]c4cccc(OC)c34)[C@@H]2C[C@@H]1/C(=C\OC)C(=O)OC [Mitragynine, mitragynine]",partially inhibit cAMP accumulation,concentration-dependent inhibition,10 to 100,moderate affinity,~1,stronger inhibition than speciofoline; also recorded: concentration-dependent inhibition,fail to recruit β-arrestin-2,10 to 100,concentration-dependent inhibition,moderate affinity,0.482 ± 0.029,> 10000,,,,,
"CC[C@@H]1CN2CC[C@@]3(O)C(=Nc4cccc(OC)c43)[C@@H]2C[C@@H]1/C(=C\OC)C(=O)OC [7-Hydroxymitragynine, 7-hydroxymitragynine]",partially inhibit cAMP accumulation,weak inhibitor; also recorded: concentration-dependent inhibition,,strong affinity,,moderate inhibitor; also recorded: concentration-dependent inhibition,fail to recruit β-arrestin-2,,weak inhibitor; also recorded: concentration-dependent inhibition,moderate affinity,,,approximately fivefold greater affinity,moderate affinity,,,
"C[C@@H](NC(=O)[C@@H](N)Cc1ccc(O)cc1)C(=O)NCC(=O)N(C)[C@@H](Cc1ccccc1)C(=O)NCCO [DAMGO, reference compound]",fully inhibit cAMP accumulation,,,,,,effectively recruit β-arrestin-2,,,,,,,,86.2 ± 1.8,,
"CC[C@@H]1CN2CC[C@]3(C(=O)Nc4cccc(O)c43)[C@H]2C[C@@H]1/C(=C\OC)C(=O)OC [Speciofoline, speciofoline]",has no effect,concentration-dependent inhibition,,did not exhibit appreciable affinity,,concentration-dependent inhibition,fail to recruit β-arrestin-2,,concentration-dependent inhibition,did not exhibit appreciable affinity,> 10,> 10000,,did not exhibit appreciable affinity,12.2 ± 3.5,4.24 ± 2.93,> 10
